Experimental data published in patent publication US7563899B2, “(S)-N-methylnaltrexone” (Progenics Pharmaceuticals, Inc., priority 2005, dated 2009).
pEC50, pKi: −log10 of the molar value. Counter-ions that a name gives are not always drawn.

Assays:
[1] = molecular target: human recombinant mu opioid receptors (Homo sapiens, UniProt P35372); test: Radioligand binding assay, mu opioid receptor
Description: Radioligand binding assays were conducted to determine the binding specificity of S-N-methynaltrexone for μ-, κ-, and δ-opiate receptors using methods adapted from scientific literature (Simonin, F et al 1994, Mol. Pharmacol 46:1015-1021; Maguire, P. et al 1992, Eur. J. Pharmacol. 213:219-225; Simonin, F. et al PNAS USA 92(15):1431-1437; Wang, J B 1994, FEBS Lett 338:217-222).

[2] = molecular target: T1, μ-opioid receptors in the guinea pig ileum (Cavia porcellus, UniProt A0ACM8Q262); test: Guinea pig ileum bioassay, test for agonist activity (inhibition of electrically evoked twitch contractions); settings: for Response to the compound (decrease in twitch contraction amplitude): percent of control response to DAMGO 1.0E−07 M
T1 sequence (A0ACM8Q262 1-400): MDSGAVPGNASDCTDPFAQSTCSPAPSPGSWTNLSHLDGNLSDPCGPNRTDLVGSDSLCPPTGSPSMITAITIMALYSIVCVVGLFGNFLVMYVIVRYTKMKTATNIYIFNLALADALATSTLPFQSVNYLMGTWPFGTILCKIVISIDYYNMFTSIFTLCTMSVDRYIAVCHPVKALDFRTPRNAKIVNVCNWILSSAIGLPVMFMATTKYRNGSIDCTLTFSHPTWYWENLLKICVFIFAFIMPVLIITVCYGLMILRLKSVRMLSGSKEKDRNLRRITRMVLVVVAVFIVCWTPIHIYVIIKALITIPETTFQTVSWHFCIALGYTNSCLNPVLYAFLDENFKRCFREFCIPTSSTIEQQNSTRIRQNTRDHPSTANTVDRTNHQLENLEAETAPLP
Description: (§1) Experimental Conditions. Segments of guinea pig terminal ileum were suspended in 20-ml organ baths filled with an oxygenated (95% O2 and 5% CO2) and pre-warmed (37° C.) physiological salt solution of the following composition (in mM): NaCl 118.0, KCl 4.7, MgSO4 1.2, CaCl2 2.5, KH2PO4 1.2, NaHCO3 25.0 and glucose 11.0 (pH 7.4). Additional experimental conditions were as described in Hutchinson et al. (1975) Brit. J. Pharmacol., 55: 541-546.
(§2) Indomethacin (1 μM), nor-binaltorphimine (0.01 μM), methysergide (1 μM), ondansetron (10 μM) and GR113808 (0.1 μM) were also present throughout the experiments to prevent prostanoid release and to block the k-opioid, 5-HT2, 5-HT3 and 5-HT4 receptors, respectively. The tissues were connected to force transducers for isometric tension recordings. They were stretched to a resting tension of 1 g then allowed to equilibrate for 60 min during which time they were washed repeatedly and the tension readjusted. Thereafter, they were stimulated electrically with pulses of minimal intensity to trigger maximal contractions and 1 ms duration, delivered at 0.1 Hz by a constant current stimulator.
Test for agonist activity. […] The different concentrations were added cumulatively and each was left in contact with the tissues until a stable response was obtained or for a maximum of 15 min.
(§3) Analysis and Expression of Results. The parameter measured was the maximum change in the amplitude of the electrically-evoked twitch contractions induced by each compound concentration.

[3] = molecular target: T1, μ-opioid receptors in the guinea pig ileum; test: Guinea pig ileum bioassay, test for antagonist activity (against DAMGO-induced response); settings: for Response to DAMGO (1.0E−07 M) in the presence of the compound: percent of control response to DAMGO, mean, n=2
Description: as §1, §2
Test for antagonist activity. […] Each concentration was left in contact with the tissues until a stable response was obtained or for a maximum of 15 min.
as §3

[4] = system: gastrointestinal transit in rats; test: Gastrointestinal transit (charcoal motility) in rats, alone or before morphine; type: in vivo, rat; settings: for Mean Motility: ratio of length of charcoal transit/total intestine length, * p<0.05 vs vehicle
Description: F. et al J. Pharmacol. Exptl. Therap. 133: 400-408, 1961; D. E. Gmerek, et al J. Pharmacol. Exptl. Ther. 236: 8-13, 1986; and O. Yamamoto et al Neurogastroenterol. Motil. 10: 523-532, 1998.
A control group of rats received 2 mL/kg of a 0.9% saline solution (n=10). After 15 minutes, rats were subcutaneously injected with saline (1 mL/kg) or morphine (3 mg/kg). A 10% suspension of activated charcoal in 0.25% methylcellulose was administered orally at 10 mL/kg to the rats 20 minutes (±2 minutes) after the subcutaneous dose of morphine or saline. The rats were euthanized 25 minutes (±3 minutes) after receiving the charcoal and the intestines were removed and lightly stretched on moist paper along a meterstick. The small intestine from pyloric sphincter to caecum was measured and the distance traveled by the charcoal as a fraction of that length was evaluated for each rat.
Statistically significant effects were determined by ANOVA with Tukey HSD Multiple Comparison Test. Differences with p values <0.05 were considered statistically significant.
Values for charcoal motility were expressed as a percent effect and were calculated in the following manner: The individual distance traveled by the charcoal in centimeters was divided by the total length of the intestines in centimeters (pyloric sphincter to caecum) for each rat. Mean values were calculated for each group, and the percent effect was calculated using the following formula: […]

[5] = molecular target: T2, human μ (mu, MOP) receptor (Homo sapiens, UniProt P35372); test: cAMP assay in CHO cells expressing human mu receptor, agonist assay; type: cell-based
T2 construct: expressed in transfected cells; host or cells: CHO cells
T2 sequence (P35372 whole entry): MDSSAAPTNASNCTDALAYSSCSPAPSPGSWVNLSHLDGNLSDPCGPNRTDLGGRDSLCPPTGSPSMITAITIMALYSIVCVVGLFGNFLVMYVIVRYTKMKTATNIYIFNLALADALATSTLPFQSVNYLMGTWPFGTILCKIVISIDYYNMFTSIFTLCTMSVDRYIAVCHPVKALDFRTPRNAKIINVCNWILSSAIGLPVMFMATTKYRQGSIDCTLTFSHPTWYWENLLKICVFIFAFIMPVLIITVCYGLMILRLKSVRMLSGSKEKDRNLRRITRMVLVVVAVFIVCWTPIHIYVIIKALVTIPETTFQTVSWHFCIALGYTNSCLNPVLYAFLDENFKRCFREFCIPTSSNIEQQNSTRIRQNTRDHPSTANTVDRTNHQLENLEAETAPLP

[6] = molecular target: T2, human μ (mu, MOP) receptor; test: cAMP assay in CHO cells expressing human mu receptor, antagonist assay; type: cell-based; settings: for cAMP antagonist assay value (Table IX.2): then 30 μM DAMGO, then forskolin
Description: Thus full antagonist effect was equivalent to forskolin without any addition of μ-opioid agonist.
Cells were grown to confluence in 96-well plates. Cells were washed and equilibrated in physiological buffer before analysis. 20 ul of drug, 100 uM IBMX and 10 uM forskolin were added and incubated for 25 minutes at room temperature and then the reaction was stopped with the addition of 0.1 N HCl. Extracted cAMP level was determined via competitive EIA assay utilizing alkaline phosphatase. Additional experimental conditions were as described in Toll L., J Pharmacol Exp Ther. (1995) 273(2): 721-7.

[7] = 1 mg/kg sc + Morphine 3 mg/kg sc
[8] = 3 mg/kg sc + Morphine 3 mg/kg sc
[9] = 10 mg/kg sc + Morphine 3 mg/kg sc

Chain of human recombinant mu opioid receptors (P35372 whole entry): as above

C[N@@+]1(CC2CC2)CC[C@]23c4c5ccc(O)c4OC2C(=O)CCC3(O)C1C5 (stereo partly drawn) [S-MNTX, (S)-N-(cyclopropylmethyl)-noroxymorphone methyl salt]
pKi [1]: 6.70 | Response to the compound (decrease in twitch contraction amplitude) ([2]; 1.0E−04 M, mean, n=2): 109% | Response to the compound (decrease in twitch contraction amplitude) ([2]; 1.0E−05 M, mean, n=2): 92% | Response to the compound (decrease in twitch contraction amplitude) ([2]; 1.0E−06 M, mean, n=2): 35% | Response to the compound (decrease in twitch contraction amplitude) ([2]; 1.0E−07 M, mean, n=2): 5% | Response to the compound (decrease in twitch contraction amplitude) ([2]; 1.0E−08 M, mean, n=2): 0% | Response to the compound (decrease in twitch contraction amplitude) ([2]; 3.0E−05 M, mean, n=2): 109% | Response to the compound (decrease in twitch contraction amplitude) ([2]; 3.0E−06 M, mean, n=2): 59% | Response to the compound (decrease in twitch contraction amplitude) ([2]; 3.0E−07 M, mean, n=2): 16% | Response to the compound (decrease in twitch contraction amplitude) ([2]; 3.0E−08 M, mean, n=2): 0% | Response to the compound +naloxone ([2]; compound 1.0E−04 M + naloxone 1.0E−07 M, percent of control response to DAMGO, mean, n=2): 17% | behaviour at the μ-opioid receptors in this tissue ([2]; field-stimulated guinea pig ileum): behaves as an agonist | pEC50 ([2]; guinea pig ileum, linear regression of concentration-response curve): 5.70 | Response to DAMGO (1.0E−07 M) in the presence of the compound ([3]; compound 1.0E−04 M): 110% | Response to DAMGO (1.0E−07 M) in the presence of the compound ([3]; compound 1.0E−05 M): 105% | Response to DAMGO (1.0E−07 M) in the presence of the compound ([3]; compound 1.0E−06 M): 100% | Response to DAMGO (1.0E−07 M) in the presence of the compound ([3]; compound 1.0E−07 M): 100% | Response to DAMGO (1.0E−07 M) in the presence of the compound ([3]; compound 1.0E−08 M): 100% | Response to DAMGO (1.0E−07 M) in the presence of the compound ([3]; compound 3.0E−05 M): 109% | Response to DAMGO (1.0E−07 M) in the presence of the compound ([3]; compound 3.0E−06 M): 102% | Response to DAMGO (1.0E−07 M) in the presence of the compound ([3]; compound 3.0E−07 M): 100% | Response to DAMGO (1.0E−07 M) in the presence of the compound ([3]; compound 3.0E−08 M): 100% | Antagonist activity IC50 value ([3]; guinea pig ileum, against DAMGO 1.0E−07 M): No antagonist activity | Percent Decrease [4, 7]: 54% | Mean Motility [4, 7]: 0.281* | Percent Decrease [4, 8]: 57% | Mean Motility [4, 8]: 0.258* | Percent Decrease [4, 9]: 80% | Mean Motility [4, 9]: 0.122* | Percent Decrease ([4]; 10 mg/kg sc + Saline): 21% | Mean Motility ([4]; 10 mg/kg sc + Saline): 0.476* | effect on GI transit in combination with / prior to morphine ([4]; rats, sc, 15 minutes before morphine 3 mg/kg): dramatic synergistic agonist effect in decreasing GI motility | effect on GI transit when administered alone ([4]; rats, sc, alone): decreased GI motility | pEC50 ([5]; CHO cells, human recombinant mu receptor, 10 uM forskolin, 100 uM IBMX, read-out: EC50 (agonist response, inhibition of forskolin-induced cAMP)): 6.22 | nature of the agonist response ([5]; cAMP agonist assay): complete (not partial) | cAMP agonist assay value (Table IX.1) ([5]; log{M} conc −4.0): 3 | cAMP agonist assay value (Table IX.1) ([5]; log{M} conc −4.5): −3 | cAMP agonist assay value (Table IX.1) ([5]; log{M} conc −5.0): 4 | cAMP agonist assay value (Table IX.1) ([5]; log{M} conc −5.5): 11 | cAMP agonist assay value (Table IX.1) ([5]; log{M} conc −6.0): 32 | cAMP agonist assay value (Table IX.1) ([5]; log{M} conc −6.5): 66 | cAMP agonist assay value (Table IX.1) ([5]; log{M} conc −7.0): 70 | cAMP agonist assay value (Table IX.1) ([5]; log{M} conc −7.5): 79 | cAMP agonist assay value (Table IX.1) ([5]; log{M} conc −8.0): 104 | cAMP agonist assay value (Table IX.1) ([5]; log{M} conc −9.0): 86 | antagonist effect in cAMP assay ([6]; cAMP antagonist assay): no antagonist effect | cAMP antagonist assay value (Table IX.2) ([6]; log{M} conc −4.0): −13 | cAMP antagonist assay value (Table IX.2) ([6]; log{M} conc −4.5): −13 | cAMP antagonist assay value (Table IX.2) ([6]; log{M} conc −5.0): −9 | cAMP antagonist assay value (Table IX.2) ([6]; log{M} conc −5.5): −8 | cAMP antagonist assay value (Table IX.2) ([6]; log{M} conc −6.0): −1 | cAMP antagonist assay value (Table IX.2) ([6]; log{M} conc −6.5): 9 | cAMP antagonist assay value (Table IX.2) ([6]; log{M} conc −7.0): 5 | cAMP antagonist assay value (Table IX.2) ([6]; log{M} conc −7.5): 6 | cAMP antagonist assay value (Table IX.2) ([6]; log{M} conc −8.0): 4 | cAMP antagonist assay value (Table IX.2) ([6]; log{M} conc −9.0): 0
